Source: ChEMBL document CHEMBL1130767, “Discovery of a new cyclooxygenase-2 lead compound through 3-D database searching and combinatorial chemistry” (Bioorg Med Chem Lett, 1998)
Each block holds one molecule with its values, some of them ahead of it.

Key:
[1] = target: T1, Prostaglandin G/H synthase 2 (Homo sapiens, UniProt P35354); test: Inhibitory activity was evaluated against human Prostaglandin G/H synthase 2 was determined
T1 sequence (P35354 whole entry): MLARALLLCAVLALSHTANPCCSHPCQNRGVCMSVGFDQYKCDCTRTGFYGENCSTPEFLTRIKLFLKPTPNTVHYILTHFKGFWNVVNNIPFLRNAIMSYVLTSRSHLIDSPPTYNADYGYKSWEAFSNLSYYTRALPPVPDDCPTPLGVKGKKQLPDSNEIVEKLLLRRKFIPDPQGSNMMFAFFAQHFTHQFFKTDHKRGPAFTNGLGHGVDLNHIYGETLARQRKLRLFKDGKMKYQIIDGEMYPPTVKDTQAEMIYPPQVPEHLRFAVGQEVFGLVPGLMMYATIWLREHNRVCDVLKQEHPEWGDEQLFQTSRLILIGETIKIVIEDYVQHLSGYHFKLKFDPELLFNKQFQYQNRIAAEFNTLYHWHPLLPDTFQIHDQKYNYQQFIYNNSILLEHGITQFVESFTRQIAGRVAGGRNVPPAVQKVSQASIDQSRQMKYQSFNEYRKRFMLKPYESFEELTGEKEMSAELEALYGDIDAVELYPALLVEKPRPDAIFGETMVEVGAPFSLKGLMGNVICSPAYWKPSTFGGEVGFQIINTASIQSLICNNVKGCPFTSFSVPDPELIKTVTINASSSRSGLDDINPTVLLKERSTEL

[2] = target: T2, Prostaglandin G/H synthase 1 (Homo sapiens, UniProt P23219); test: Compound was evaluated for percent inhibition of Prostaglandin G/H synthase 1 at the concentration of 0.3 uM
[3] = target: T3, Prostaglandin G/H synthase 2 (Homo sapiens) (UniProt P35354); test: Compound was evaluated for percent inhibition of Prostaglandin G/H synthase 2 at the concentration of 0.3 uM
T3 sequence (whole entry): T1 sequence (P35354 whole entry)

[4] = target: T2, Prostaglandin G/H synthase 1; test: Compound was evaluated for the inhibition of Prostaglandin G/H synthase 1 at the concentration of 3 uM
[5] = target: T2, Prostaglandin G/H synthase 1; test: Inhibitory activity was evaluated against human Prostaglandin G/H synthase 1 was determined
[6] = target: T3, Prostaglandin G/H synthase 2 (Homo sapiens); test: Compound was evaluated for percent inhibition of Prostaglandin G/H synthase 2 at the concentration of 10 uM
[7] = target: T2, Prostaglandin G/H synthase 1; test: Compound was evaluated for percent inhibition of Prostaglandin G/H synthase 1 at the concentration of 10 uM

T2 sequence (P23219 whole entry): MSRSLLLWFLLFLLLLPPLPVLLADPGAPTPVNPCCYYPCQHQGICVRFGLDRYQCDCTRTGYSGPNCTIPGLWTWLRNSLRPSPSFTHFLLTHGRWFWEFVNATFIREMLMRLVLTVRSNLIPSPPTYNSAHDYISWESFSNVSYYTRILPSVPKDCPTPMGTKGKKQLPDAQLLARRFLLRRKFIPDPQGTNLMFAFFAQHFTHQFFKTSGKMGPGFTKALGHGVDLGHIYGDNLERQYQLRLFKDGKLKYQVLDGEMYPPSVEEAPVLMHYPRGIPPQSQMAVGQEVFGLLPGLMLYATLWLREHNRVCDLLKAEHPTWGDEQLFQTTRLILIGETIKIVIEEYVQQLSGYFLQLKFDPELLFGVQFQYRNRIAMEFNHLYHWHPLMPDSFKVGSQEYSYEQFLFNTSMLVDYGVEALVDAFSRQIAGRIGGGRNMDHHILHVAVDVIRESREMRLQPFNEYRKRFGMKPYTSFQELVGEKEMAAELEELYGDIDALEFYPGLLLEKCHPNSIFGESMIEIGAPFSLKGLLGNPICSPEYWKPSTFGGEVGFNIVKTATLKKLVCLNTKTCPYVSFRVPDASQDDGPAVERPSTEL

IC50 [1]: 21 µM | inhibition [2]: 12% | inhibition [3]: 34% | inhibition [4]: 19%
Compound: CC(C)(COc1ccc(Br)cc1)C(=O)NCCCN1c2ccccc2Sc2ccccc21

IC50 [5]: 1 µM | IC50 [1]: 5 µM
Compound: CC(O)CN1c2ccccc2Sc2ccccc21 (centres undefined)

inhibition [3]: 18%
Compound: CCC(=O)NCCCN1c2ccccc2Sc2ccccc21

IC50 [5]: 0.5 µM | IC50 [1]: 4 µM
Compound: CC(S)CN1c2ccccc2Sc2ccccc21 (centres undefined)

inhibition [3]: 15%
Compound: O=C(CCC1CCCCC1)NCCCN1c2ccccc2Sc2ccccc21

inhibition [3]: 15%
Compound: O=C(COc1ccc(Br)cc1)NCCCN1c2ccccc2Sc2ccccc21

IC50 [1]: 1.3 µM | inhibition [2]: 13% | inhibition [3]: 44% | inhibition [4]: 17%
Compound: CC(C)(Oc1ccc(Cl)cc1)C(=O)NCCCN1c2ccccc2Sc2ccccc21

inhibition [6]: 14% | inhibition [7]: 25%
Compound: O=C(O)CCN1c2ccccc2Sc2ccccc21

inhibition [6]: 14% | inhibition [7]: 12%
Compound: OCCN1c2ccccc2Sc2ccccc21
